Test results published in patent US20180344715A1, “WNT/BETA-CATENIN SIGNAL TRANSDUCTION INHIBITORS AND THEIR USE IN TREATMENT OR PREVENTION OF DISEASES AND CONDITIONS LINKED WITH SAID TRANSDUCTION” (BERGEN TEKNOLOGIOVERFORING AS, priority 2015, published 2018).

System: Wnt/β-catenin signaling
Test: TOPFlash reporter assay in 293FT cells
Type: cell-based, human
Details: 1 μM 6BIO together with drug at indicated concentrations, 24 hours
Method: TOPFlash assay was performed in 96-well plate. For each well, 293T cells were transfected with 0.22 μg TOPFlash (or FOPFlash with mutant TCF binding sites) and 0.02 μg pRL-SV40P using lipofectamine 3000. For co-transfection with other plasmids, 0.1 μg additional DNA was used. […] The luciferase activity was measured 24 hours later by using Dual-Glo® Luciferase Assay System (Promega, E2940) according to the recommended protocol. The TOPFlash or FOPFlash activity was normalized to Renilla luciferase signals.
TOPFlash assay was performed as described above. Briefly, for each well of a 96-well plate 293FT cells were transfected with 0.22 μg TOPFlash (or FOPFlash with mutant TCF binding sites) and 0.02 μg pRL-SV40P using lipofectamine 3000. For co-transfection with other plasmids, 0.1 μg additional DNA was used. Four hours after transfection, 293FT cells were treated with DMSO, 1 μM 6B10 and 1 μM 6B10 together with pazopanib, orlistat and topotecan at varying concentrations for 24 hours. The luciferase activity was then measured using Dual-Glo® Luciferase Assay System (Promega, E2940) according to the recommended protocol. The TOPFlash or FOPFlash activity was normalized to Renilla luciferase signals.

Structure (SMILES)	TOPFlash activity normalized to Renilla luciferase activity
CCCCCCCCCCC[C@@H](C[C@@H]1OC(=O)[C@H]1CCCCCC)OC(=O)[C@H](CC(C)C)NC=O [orlistat, (S)-((S)-1-((2S,3S)-3-Hexyl-4-oxooxetan-2-yl)tridecan-2-yl) 2-formamido-4-methylpentanoate]	Wnt signaling inhibition
CC[C@@]1(O)C(=O)OCc2c1cc1n(c2=O)Cc2cc3c(CN(C)C)c(O)ccc3nc2-1.Cl [topotecan, (S)-10-[(dimethylamino)methyl]-4-ethyl-4,9-dihydroxy-1H-pyrano[3′,4′:6,7]indolizino[1,2-b]quinoline-3,14(4H,12H)-dione monohydrochloride]	Wnt signaling inhibition
